# Measured values: US10201587B2, “Methods of inhibiting and treating biofilms using glycopeptide antibiotics” (MELINTA THERAPEUTICS, INC., priority 2008, dated 2019)
# How the values were obtained:
# [1] = test system: stationary-phase MRSA ATCC 43300; assay: Ultrastructure by transmission electron microscopy of thin sections; format: cell-based, S. aureus; settings: 3 hours in nutrient-depleted CAMHB; 1 μg/mL oritavancin, 16 μg/mL vancomycin
# Procedure: Bacteria were fixed in 2.5% glutaraldehyde to cross-link proteins and help preserve morphological structure. Prior to embedding, the samples were treated with fresh 2.5% (vol/vol) glutaraldehyde in HEPES buffer (pH, 6.8) for 2 hours. The samples were then post-fixed in 2.0% (wt/vol) osmium tetroxide, followed by en bloc-staining with 2.0% (wt/vol) uranyl acetate, as a heavy-metal stain, to add contrast to the cells. The cells were then dehydrated through a series of ethanol washes then embedded in LR White resin. Once polymerized by curing, each culture sample was thin sectioned and stained by uranyl acetate and lead citrate so as to view the internal cellular constituents and the juxtaposition of cell envelope layers such as the plasma membrane and cell wall. Transmission electron microscopy was used to view the thin sections using a Philips CM10 under standard operating conditions at 100 kV.
# VRSA VRS5 = assay: Time-kill in nutrient-depleted CAMHB; format: cell-based, S. aureus
# Procedure: (§1) Nutrient-depleted CAMHB from each respective strain was prepared by 3 rounds of inoculation of CAMHB with exponential-phase bacteria, incubation overnight at 37° C. with rotation (225 rpm) and centrifugation (8000×g for 30 minutes) to remove bacteria. After the final round of inoculation, growth and centrifugation, the pH of the nutrient-depleted CAMHB was adjusted to pH=7.0 and the spent medium was filter-sterilized using a […] membrane (Corning Incorporated, Corning, N.Y.).
# (§2) Nutrient-depleted CAMHB containing diluted antimicrobial agents was inoculated with stationary-phase bacteria from overnight cultures of the S. aureus strains at approximately 10^7 colony-forming units (CFU)/mL. Other experiments compared the killing of stationary- and exponential-phase S. aureus ATCC 29213 when inoculated into nutrient-depleted CAMHB containing the test agents. For assays involving daptomycin, nutrient-depleted CAMHB was supplemented with 50 μg/ml CaCl2 (8). All time-kill studies were performed in 96-well deep-well plates at 37° C. with rotation (225 rpm) in a total volume of 750 μL. Bacteria were enumerated by serial-dilution plating. Bacteriostatic and bactericidal activity of the antimicrobial agents were defined as a reduction in viable cell counts of <3 or ≥3 log at 24 hours relative to the starting inoculum, respectively (33). Experiments were repeated at least three times and produced similar results; results from one experiment are presented.
# MRSA ATCC 33591 = assay: Time-kill in nutrient-depleted CAMHB; format: cell-based, S. aureus; settings: stationary-phase, free-trough concentration 0.5 μg/mL, 24 hours
# Procedure: as §1, §2
# MSSA ATCC 29213 = assay: Time-kill in nutrient-depleted CAMHB; format: cell-based, S. aureus; settings: stationary-phase, estimated free-trough concentration 0.5 μg/mL, 24 hours
# Procedure: as §1, §2
# S. aureus ATCC 29213 = assay: Short duration (2 h) time-kill in membrane assay buffer; format: cell-based
# Procedure: Short duration (2 h) time-kill studies were performed in membrane assay buffer (see below) to characterize the killing of S. aureus ATCC 29213 under conditions used in the membrane depolarization and permeability assays. Exponential- and stationary-phase S. aureus ATCC 29213 cells were diluted to an OD600=0.005 (approx 10^6 CFU/mL) in membrane assay buffer (10 mM HEPES-C1, pH 7.5, 50 μg/mL CaCl2) with or without 5 mM glucose, respectively. Experiments were initiated by the addition of antimicrobial agents at the indicated concentrations and bacteria were enumerated by serial-dilution plating.
# [2] = test system: S. aureus strains (MSSA ATCC 29213, MRSA ATCC 33591, VRSA VRS5); assay: MBEC system in vitro biofilm, statements over all three strains; format: cell-based; settings: 24-hour biofilm
# Procedure: The commercially-available MBEC™ system (Innovotech; Edmonton, AB, Canada) was used following the manufacturer's protocol (17) to establish in vitro biofilms of S. aureus and to determine the minimal biofilm eradication concentration (MBEC) of oritavancin and comparator antimicrobial agents. The MBEC represents the concentration of antimicrobial agent required to sterilize the biofilm after 24 hours of exposure. The MBEC™ system also allows for the determination of the minimal inhibitory concentration (MIC) of the test agent against planktonic cells under the conditions of the biofilm assay.
# 150 μL of bacterial inocula at 10^7 CFU/mL in tryptic soy broth was aliquoted into each well of an MBEC plate. Biofilms were established for 24 hours in a rotary incubator at 37° C. and 150 rpm. For experiments involving 72-hour biofilms, peg lids were transferred each day to 96-well plates containing 150 μL/well of fresh tryptic soy broth and incubated another 24 hours. […] The recovery plates were sonicated for 5 minutes in an ultrasonic sonicating bath (VWR Aquasonic model 550D) at the maximum setting then incubated for 24 hours and the MBECs recorded. MBECs were determined from at least three independent experiments; results represent the ranges of MBECs obtained. […]
structure (smiles),measurement,setting,value
"CN[C@H](CC(C)C)C(=O)N[C@H]1C(=O)N[C@@H](CC(N)=O)C(=O)N[C@H]2C(=O)N[C@H]3C(=O)N[C@H](C(=O)N[C@H](C(=O)O)c4cc(O)cc(O)c4-c4cc3ccc4O)[C@H](O[C@H]3C[C@](C)(N)[C@@H](O)[C@H](C)O3)c3ccc(c(Cl)c3)Oc3cc2cc(c3O[C@@H]2O[C@H](CO)[C@@H](O)[C@H](O)[C@H]2O[C@H]2C[C@](C)(NCc3ccc(-c4ccc(Cl)cc4)cc3)[C@@H](O)[C@H](C)O2)Oc2ccc(cc2Cl)[C@H]1O [Oritavancin, N-(4-(4-chlorophenyl)benzyl)A82846B]",septal mid-line staining,[1],conspicuously absent
same,activity at the 24-hour time point,"VRSA VRS5; stationary-phase inoculum, fCmax 800 (16 μg/mL)","bactericidal (Bacteriostatic and bactericidal activity of the antimicrobial agents were defined as a reduction in viable cell counts of <3 or ≥3 log at 24 hours relative to the starting inoculum, respectively)"
same,decrease in viable cell counts,"VRSA VRS5; stationary-phase, fCmax, 24 hours",approx 2.2 log
same,reduction in viable cell counts,"VRSA VRS5; stationary-phase, free-trough concentration 0.5 μg/mL, 24 hours",approx 1.2 log
same,reduction in viable cell counts,MRSA ATCC 33591,approx 0.4 log
same,reduction in viable cell counts,MSSA ATCC 29213,approx 2.9 log
same,reduction in CFU,"S. aureus ATCC 29213; exponential-phase cells, within 5 minutes, 16 μg/mL",4 log
same,reduction in CFU,"S. aureus ATCC 29213; stationary-phase cells, within the 2-hour time period, oritavancin at fCmax 800, daptomycin at fCmax",approximately 1 log
same,MBEC,[2]; all three S. aureus strains,2 to 8 µg/mL
same,MBEC relative to respective planktonic MIC,[2]; in each experiment,within one doubling dilution
